Measured values from ChEMBL document CHEMBL1201862, “PubChem BioAssay data set” (2004).
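Values below derive from 48-hour exposures of cells grown in 96-well plates, with endpoints linearly interpolated between the two concentrations bracketing the appropriate inhibition level. GI50 = concentration required for 50% inhibition of growth.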 The source made the active and inactive calls. No stated cut-off is given here; in the data, active = GI50 up to about 1.1 µM and inactive = higher.

Experiments:
Assay in all cases: NCI anticancer screen, dose series, 48 h
CAKI-1 = test system: CAKI-1
A549 = test system: A549
HOP-62 = test system: HOP-62
IGROV-1 = test system: IGROV-1
M14 = test system: M14
SNB-75 = test system: SNB-75
OVCAR-8 = test system: OVCAR-8
SNB-19 = test system: SNB-19
KM12 = test system: KM12
LXFL 529 = test system: LXFL 529
NCI-H226 = test system: NCI-H226
SK-OV-3 = test system: SK-OV-3
CCRF-CEM = test system: CCRF-CEM
HCT-15 = test system: HCT-15
OVCAR-3 = test system: OVCAR-3
NCI-H460 = test system: NCI-H460
HCT-116 = test system: HCT-116
NCI-H23 = test system: NCI-H23
OVCAR-5 = test system: OVCAR-5

Compound | GI50 (CAKI-1) | GI50 (A549) | GI50 (HOP-62) | GI50 (IGROV-1) | GI50 (M14) | GI50 (SNB-75) | GI50 (OVCAR-8) | GI50 (SNB-19) | GI50 (KM12) | GI50 (LXFL 529) | GI50 (NCI-H226) | GI50 (SK-OV-3) | GI50 (CCRF-CEM) | GI50 (HCT-15) [µM] | GI50 (OVCAR-3) | GI50 (NCI-H460) | GI50 (HCT-116) | GI50 (NCI-H23) | GI50 (OVCAR-5)
O=C1CCCCC12CCC/C2=N\O (configuration not stated) | > 100 µM (inactive) | > 100 µM (inactive) | > 100 µM (inactive) | > 100 µM (inactive) | > 100 µM (inactive) | > 100 µM (inactive) | > 100 µM (inactive) | > 100 µM (inactive) | > 100 µM (inactive) | > 100 µM (inactive) | > 100 µM (inactive) | > 100 µM (inactive) | > 100 µM (inactive) | > 100 | > 100 µM (inactive) | > 100 µM (inactive) | > 100 µM (inactive) | – | –
NC(CCCNCc1ccccc1)C(=O)O (configuration not stated) | > 100 µM (inactive) | > 100 µM (inactive) | > 100 µM (inactive) | > 100 µM (inactive) | > 100 µM (inactive) | > 100 µM (inactive) | > 100 µM (inactive) | > 100 µM (inactive) | > 100 µM (inactive) | > 100 µM (inactive) | > 100 µM (inactive) | > 100 µM (inactive) | > 100 µM (inactive) | > 100 | > 100 µM (inactive) | > 100 µM (inactive) | > 100 µM (inactive) | > 100 µM (inactive) | –
O=C1c2ccccc2C(=O)C1C(c1ccc(F)cc1)C1C(=O)c2ccccc2C1=O | > 100 µM (inactive) | > 100 µM (inactive) | > 100 µM (inactive) | – | > 100 µM (inactive) | 55 µM (inactive) | > 100 µM (inactive) | > 100 µM (inactive) | > 100 µM (inactive) | > 100 µM (inactive) | > 100 µM (inactive) | > 100 µM (inactive) | 43 µM (inactive) | > 100 | > 100 µM (inactive) | > 100 µM (inactive) | > 100 µM (inactive) | > 100 µM (inactive) | > 100 µM (inactive)
CN(C)/N=N/c1c[nH]nc1C(N)=O | > 100 µM (inactive) | > 100 µM (inactive) | > 100 µM (inactive) | > 100 µM (inactive) | > 100 µM (inactive) | > 100 µM (inactive) | > 100 µM (inactive) | > 100 µM (inactive) | > 100 µM (inactive) | > 100 µM (inactive) | > 100 µM (inactive) | > 100 µM (inactive) | > 100 µM (inactive) | 64.1 | > 100 µM (inactive) | > 100 µM (inactive) | > 100 µM (inactive) | > 100 µM (inactive) | > 100 µM (inactive)
O=C(O)c1cc(S(=O)(=O)N/N=C\c2c3ccccc3[n+]([O-])c3ccccc23)ccc1O | 45.8 µM (inactive) | 22.7 µM (inactive) | 7.48 µM (inactive) | 22.1 µM (inactive) | 17.1 µM (inactive) | 2.58 µM (inactive) | 12.7 µM (inactive) | 31.6 µM (inactive) | 23.8 µM (inactive) | 12.2 µM (inactive) | 26.7 µM (inactive) | 38.3 µM (inactive) | 8.57 µM (inactive) | 5.96 | 40.1 µM (inactive) | 5.96 µM (inactive) | 7.55 µM (inactive) | 8.04 µM (inactive) | 30.7 µM (inactive)
COc1ccc(C(=O)C=C2NCCN2)cc1 | > 100 µM (inactive) | > 100 µM (inactive) | > 100 µM (inactive) | > 100 µM (inactive) | > 100 µM (inactive) | > 100 µM (inactive) | > 100 µM (inactive) | > 100 µM (inactive) | > 100 µM (inactive) | > 100 µM (inactive) | > 100 µM (inactive) | > 100 µM (inactive) | > 100 µM (inactive) | – | > 100 µM (inactive) | > 100 µM (inactive) | > 100 µM (inactive) | > 100 µM (inactive) | > 100 µM (inactive)
COc1ccc(C=C(c2ccc(OCc3ccccc3)cc2)c2ccc(OCc3ccccc3)cc2)cc1 | > 100 µM (inactive) | > 100 µM (inactive) | > 100 µM (inactive) | > 100 µM (inactive) | > 100 µM (inactive) | > 100 µM (inactive) | > 100 µM (inactive) | > 100 µM (inactive) | > 100 µM (inactive) | > 100 µM (inactive) | > 100 µM (inactive) | > 100 µM (inactive) | – | > 100 | > 100 µM (inactive) | > 100 µM (inactive) | – | > 100 µM (inactive) | > 100 µM (inactive)
CCCCCCCCCCn1cccc1/C=C/c1ccc(/C=C/c2cccn2CCCCCCCCCC)cc1 | > 100 µM (inactive) | > 100 µM (inactive) | > 100 µM (inactive) | > 100 µM (inactive) | > 100 µM (inactive) | > 100 µM (inactive) | > 100 µM (inactive) | > 100 µM (inactive) | > 100 µM (inactive) | > 100 µM (inactive) | > 100 µM (inactive) | > 100 µM (inactive) | > 100 µM (inactive) | – | > 100 µM (inactive) | > 100 µM (inactive) | > 100 µM (inactive) | > 100 µM (inactive) | > 100 µM (inactive)
C=CCOC(C)n1c(C)c(Br)c(=O)[nH]c1=O (configuration not stated) | > 100 µM (inactive) | > 100 µM (inactive) | – | > 100 µM (inactive) | – | > 100 µM (inactive) | > 100 µM (inactive) | > 100 µM (inactive) | > 100 µM (inactive) | > 100 µM (inactive) | > 100 µM (inactive) | 65.2 µM (inactive) | > 100 µM (inactive) | > 100 | > 100 µM (inactive) | > 100 µM (inactive) | > 100 µM (inactive) | > 100 µM (inactive) | > 100 µM (inactive)
O=C(Nc1cc(Cl)c(Cl)cc1Cl)C(=O)C(C(=O)c1ccccc1)C1OC(=O)c2ccccc21 (configuration not stated) | > 100 µM (inactive) | > 100 µM (inactive) | > 100 µM (inactive) | > 100 µM (inactive) | > 100 µM (inactive) | 17.9 µM (inactive) | > 100 µM (inactive) | > 100 µM (inactive) | > 100 µM (inactive) | > 100 µM (inactive) | > 100 µM (inactive) | > 100 µM (inactive) | > 100 µM (inactive) | > 100 | > 100 µM (inactive) | > 100 µM (inactive) | > 100 µM (inactive) | > 100 µM (inactive) | > 100 µM (inactive)
O=C1CCC(c2nc3ccccc3o2)C(=O)N1 (configuration not stated) | > 100 µM (inactive) | > 100 µM (inactive) | > 100 µM (inactive) | > 100 µM (inactive) | > 100 µM (inactive) | 79.1 µM (inactive) | > 100 µM (inactive) | > 100 µM (inactive) | > 100 µM (inactive) | > 100 µM (inactive) | > 100 µM (inactive) | > 100 µM (inactive) | > 100 µM (inactive) | > 100 | > 100 µM (inactive) | > 100 µM (inactive) | > 100 µM (inactive) | > 100 µM (inactive) | –
COC(=O)C1=C(C(=O)OC)C2(CCCCCC2=O)OC1=O (configuration not stated) | > 100 µM (inactive) | > 100 µM (inactive) | > 100 µM (inactive) | > 100 µM (inactive) | > 100 µM (inactive) | > 100 µM (inactive) | > 100 µM (inactive) | > 100 µM (inactive) | > 100 µM (inactive) | > 100 µM (inactive) | > 100 µM (inactive) | > 100 µM (inactive) | > 100 µM (inactive) | > 100 | > 100 µM (inactive) | > 100 µM (inactive) | > 100 µM (inactive) | > 100 µM (inactive) | > 100 µM (inactive)
CCOC(=O)C(Cc1ccccc1)NC(=O)c1nc[nH]c1/N=N/N(C)C (configuration not stated) | > 100 µM (inactive) | > 100 µM (inactive) | > 100 µM (inactive) | > 100 µM (inactive) | > 100 µM (inactive) | > 100 µM (inactive) | > 100 µM (inactive) | > 100 µM (inactive) | > 100 µM (inactive) | > 100 µM (inactive) | > 100 µM (inactive) | > 100 µM (inactive) | > 100 µM (inactive) | > 100 | > 100 µM (inactive) | > 100 µM (inactive) | > 100 µM (inactive) | > 100 µM (inactive) | > 100 µM (inactive)
Cc1c2ccncc2c(C)c2c1[nH]c1ccc(OC(C)(C)C)cc12 | 1.81 µM (inactive) | 3.15 µM (inactive) | 2.88 µM (inactive) | 4.7 µM (inactive) | 4.06 µM (inactive) | 1.85 µM (inactive) | 2.51 µM (inactive) | 2.47 µM (inactive) | – | 2.23 µM (inactive) | 3.17 µM (inactive) | 4.42 µM (inactive) | 2.07 µM (inactive) | – | 1.73 µM (inactive) | 1.93 µM (inactive) | 1.67 µM (inactive) | 5.36 µM (inactive) | 11.7 µM (inactive)
N#C/C(=C\c1cc(O)ccc1O)C(N)=O | 46.2 µM (inactive) | 78.5 µM (inactive) | > 100 µM (inactive) | 99.5 µM (inactive) | 38.6 µM (inactive) | 14.6 µM (inactive) | 50.6 µM (inactive) | 57.8 µM (inactive) | 46.1 µM (inactive) | 35.6 µM (inactive) | 34 µM (inactive) | 67.6 µM (inactive) | 21.5 µM (inactive) | 44.2 | 38.6 µM (inactive) | 40.7 µM (inactive) | 63.2 µM (inactive) | 36.2 µM (inactive) | > 100 µM (inactive)
